# System: Panc-1 xenografts
# Assay: Liposomal release from tumors following intratumoral administration
# Assay type: in vivo, nude mice
# Details: 2 hours following injection, 5 nmol
# Procedure: FIG. 13. Example of spatial and temporal control of PoP-liposome permeabilization a) Spatial control of B. subtilis killing with triggered antibiotic release. Gentamicin was loaded in PoP-liposomes and embedded in hot agar along with the bacteria. The indicated spot was irradiated with a 658 nm laser (200 mW/cm^2) for 10 minutes and the plates were photographed 24 hours later. b) Temporal control of cargo release in Panc-1 xenografts. Mice were imaged following intratumoral injection of 5 nmol of either free sulforhodamine B or sulforhodamine B entrapped at self-quenching concentrations in PoP-liposomes. Representative images are shown of the indicated time points and conditions. Laser activation was performed after 2 hours. Representative results shown with n=3 mice per treatment group.
# Liposomal release from tumors following intratumoral administration: Panc-1 tumors were grown by injecting 20 g female nude mice (Charles River) with 3×10^6 Panc-1 cells in a 1:1 matrigel dilution (BD Biosciences) in the hind flank of the mice. Following several weeks of growth, the tumors were carefully injected intratumorally with sulforhodamine B-PoP-liposomes. Images were acquired with an in vivo fluorescence imager (IVIS Lumina II) at the indicated time points with the mice under isoflurane-induced anesthesia. […]
smiles,measurement,value
"CCN(CC)c1ccc2c(-c3ccc(S(=O)(=O)O)cc3S(=O)(=O)[O-])c3ccc(=[N+](CC)CC)cc-3oc2c1 [free rhodamine, sulforhodamine B]",fluorescence in tumor after intratumoral injection,little fluorescence remaining in the tumor
